Reference: paper PMC10041525, “New Dual Inhibitors of Bacterial Topoisomerases with Broad-Spectrum Antibacterial Activity and In Vivo Efficacy against Vancomycin-Intermediate Staphylococcus aureus” (Journal of Medicinal Chemistry, 2023)

What was measured:
E. faecalis ATCC 29212 = system: E. faecalis ATCC 29212; design: method as in earlier work; settings: QC range for E. faecalis ATCC 29212, ref CLSI; cited from earlier work
[1] = system: 100 A. baumannii strains (50 MDR, 50 non-MDR); test: MIC broth microdilution at IHMA Europe, panel of 100 strains; assay type: cell-based; settings: Acinetobacter baumannii

Compound: C[C@H]1COc2c(N3CCN(C)CC3)c(F)cc3c(=O)c(C(=O)O)cn1c23.C[C@H]1COc2c(N3CCN(C)CC3)c(F)cc3c(=O)c(C(=O)O)cn1c23.O [Levofloxacin, levofloxacin]
- MIC, CLSI Range (E. faecalis ATCC 29212): 0,25 - 2 µg/mL
- MIC ([1]; A. baumannii IHMA 1769393, Lithuania 2018, Non-MDR): ≤ 0.25 µg/mL
- MIC ([1]; A. baumannii IHMA 1769782, Israel 2018, MDR): 4 µg/mL
- MIC ([1]; A. baumannii IHMA 1769910, Israel 2018, Non-MDR): ≤ 0.25 µg/mL
- MIC ([1]; A. baumannii IHMA 1790317, Czech Republic 2018, Non-MDR): ≤ 0.25 µg/mL
- MIC ([1]; A. baumannii IHMA 1790916, Romania 2018, Non-MDR): ≤ 0.25 µg/mL
- MIC ([1]; A. baumannii IHMA 1791877, Israel 2018, MDR): 4 µg/mL
- MIC ([1]; A. baumannii IHMA 1792961, Jordan 2018, MDR): 8 µg/mL
- MIC ([1]; A. baumannii IHMA 1795669, Tunisia 2018, Non-MDR): ≤ 0.25 µg/mL
- MIC ([1]; A. baumannii IHMA 1814276, Lebanon 2018, MDR): 16 µg/mL
- MIC ([1]; A. baumannii IHMA 1815198, Kuwait 2018, MDR): 16 µg/mL
- MIC ([1]; A. baumannii IHMA 1815856, Israel 2018, MDR): 8 µg/mL
- MIC ([1]; A. baumannii IHMA 1821468, South Africa 2018, Non-MDR): ≤ 0.25 µg/mL
- MIC ([1]; A. baumannii IHMA 1829500, Georgia 2018, Non-MDR): ≤ 0.25 µg/mL
- MIC ([1]; A. baumannii IHMA 1830924, United Kingdom 2018, Non-MDR): ≤ 0.25 µg/mL
- MIC ([1]; A. baumannii IHMA 1849819, Kuwait 2018, MDR): 16 µg/mL
- MIC ([1]; A. baumannii IHMA 1849829, Kuwait 2018, Non-MDR): ≤ 0.25 µg/mL
- MIC ([1]; A. baumannii IHMA 1857118, Slovenia 2018, Non-MDR): ≤ 0.25 µg/mL
- MIC ([1]; A. baumannii IHMA 1863631, France 2018, Non-MDR): ≤ 0.25 µg/mL
- MIC ([1]; A. baumannii IHMA 1870054, United States 2018, Non-MDR): ≤ 0.25 µg/mL
- MIC ([1]; A. baumannii IHMA 1884428, Italy 2018, Non-MDR): ≤ 0.25 µg/mL
- MIC ([1]; A. baumannii IHMA 1884990, Germany 2018, Non-MDR): ≤ 0.25 µg/mL
- MIC ([1]; A. baumannii IHMA 1900538, Turkey 2018, Non-MDR): ≤ 0.25 µg/mL
- MIC ([1]; A. baumannii IHMA 1913773, Kenya 2018, Non-MDR): ≤ 0.25 µg/mL
- MIC ([1]; A. baumannii IHMA 1926285, Qatar 2018, Non-MDR): ≤ 0.25 µg/mL
- MIC ([1]; A. baumannii IHMA 1926288, Qatar 2018, MDR): > 16 µg/mL
- MIC ([1]; A. baumannii IHMA 1957343, Portugal 2019, Non-MDR): ≤ 0.25 µg/mL
- MIC ([1]; A. baumannii IHMA 1963732, Turkey 2019, MDR): 16 µg/mL
- MIC ([1]; A. baumannii IHMA 1967860, Spain 2019, Non-MDR): ≤ 0.25 µg/mL
- MIC ([1]; A. baumannii IHMA 1971673, Latvia 2019, MDR): 16 µg/mL
- MIC ([1]; A. baumannii IHMA 1975075, Israel 2019, Non-MDR): ≤ 0.25 µg/mL
- MIC ([1]; A. baumannii IHMA 1977077, Kuwait 2019, Non-MDR): ≤ 0.25 µg/mL
- MIC ([1]; A. baumannii IHMA 1983151, Greece 2019, MDR): 8 µg/mL
- MIC ([1]; A. baumannii IHMA 1984665, Lithuania 2019, MDR): 16 µg/mL
- MIC ([1]; A. baumannii IHMA 1986678, Turkey 2019, Non-MDR): ≤ 0.25 µg/mL
- MIC ([1]; A. baumannii IHMA 1986738, Turkey 2019, MDR): 16 µg/mL
- MIC ([1]; A. baumannii IHMA 1987162, Croatia 2019, MDR): 8 µg/mL
- MIC ([1]; A. baumannii IHMA 1993615, Turkey 2019, MDR): 8 µg/mL
- MIC ([1]; A. baumannii IHMA 1994284, Italy 2019, MDR): > 16 µg/mL
- MIC ([1]; A. baumannii IHMA 1995161, Czech Republic 2019, Non-MDR): ≤ 0.25 µg/mL
- MIC ([1]; A. baumannii IHMA 1997936, Morocco 2019, Non-MDR): ≤ 0.25 µg/mL
- MIC ([1]; A. baumannii IHMA 1999178, Belgium 2019, Non-MDR): ≤ 0.25 µg/mL
- MIC ([1]; A. baumannii IHMA 2003279, Turkey 2019, MDR): 8 µg/mL
- MIC ([1]; A. baumannii IHMA 2014367, Jordan 2019, Non-MDR): ≤ 0.25 µg/mL
- MIC ([1]; A. baumannii IHMA 2014931, South Africa 2019, Non-MDR): ≤ 0.25 µg/mL
- MIC ([1]; A. baumannii IHMA 2019315, Romania 2019, Non-MDR): ≤ 0.25 µg/mL
- MIC ([1]; A. baumannii IHMA 2020360, Croatia 2019, MDR): 16 µg/mL
- MIC ([1]; A. baumannii IHMA 2031511, Greece 2019, Non-MDR): ≤ 0.25 µg/mL
- MIC ([1]; A. baumannii IHMA 2031524, Greece 2019, MDR): 4 µg/mL
- MIC ([1]; A. baumannii IHMA 2034657, Tunisia 2019, Non-MDR): ≤ 0.25 µg/mL
- MIC ([1]; A. baumannii IHMA 2035089, Serbia 2019, MDR): 16 µg/mL
- MIC ([1]; A. baumannii IHMA 2035134, Serbia 2019, Non-MDR): ≤ 0.25 µg/mL
- MIC ([1]; A. baumannii IHMA 2038976, Hungary 2019, MDR): 8 µg/mL
- MIC ([1]; A. baumannii IHMA 2051503, Serbia 2019, MDR): 16 µg/mL
- MIC ([1]; A. baumannii IHMA 2058329, Slovenia 2019, Non-MDR): ≤ 0.25 µg/mL
- MIC ([1]; A. baumannii IHMA 2065587, France 2019, Non-MDR): ≤ 0.25 µg/mL
- MIC ([1]; A. baumannii IHMA 2099294, United Kingdom 2019, Non-MDR): ≤ 0.25 µg/mL
- MIC ([1]; A. baumannii IHMA 2129256, Qatar 2019, Non-MDR): ≤ 0.25 µg/mL
- MIC ([1]; A. baumannii IHMA 2154584, Israel 2020, MDR): 8 µg/mL
- MIC ([1]; A. baumannii IHMA 2155340, Kenya 2020, MDR): 16 µg/mL
- MIC ([1]; A. baumannii IHMA 2156634, Turkey 2020, MDR): 16 µg/mL
- MIC ([1]; A. baumannii IHMA 2156709, Turkey 2020, MDR): 16 µg/mL
- MIC ([1]; A. baumannii IHMA 2157614, Australia 2020, Non-MDR): ≤ 0.25 µg/mL
- MIC ([1]; A. baumannii IHMA 2177232, Lithuania 2020, MDR): 16 µg/mL
- MIC ([1]; A. baumannii IHMA 2177489, Lithuania 2020, MDR): 16 µg/mL
- MIC ([1]; A. baumannii IHMA 2178574, Ukraine 2020, Non-MDR): ≤ 0.25 µg/mL
